Test results reported in PubChem BioAssay (NCI).
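48-hour exposure; five concentrations; linearly interpolated endpoints. The concentration for full growth arrest is given as TGI.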

System: SN12K1 renal
Assay: inhibition of tumour cell growth, NCI panel, 48 h

C=C(C)C(=O)NC(N)=NC#N gave a TGI of over 56.4 µM.
